The test system of the assay is A549. In words: Cytotoxicity against human A549 cells measured after 24 hrs. Format: functional, cell-based. As to conditions: A549, 24 h.

A word on the IC50: it is the point on the concentration scale where inhibition reaches its midpoint. A lower IC50 goes with inhibition by little substance. Compound `CC(=O)O[C@H]1C(=O)[C@@]2(C)[C@H]([C@H](OC(=O)c3ccccc3)[C@]3(O)C[C@H](OC(=O)[C@H](O)[C@@H](NC(=O)c4ccccc4)c4ccccc4)C(C)=C1C3(C)C)[C@]1(OC(C)=O)CO[C@@H]1C[C@@H]2O` [PACLITAXEL] had an IC50 of 4.1 nM.

These data come from ChEMBL document CHEMBL4118095, “Conjugation of Paclitaxel to Hybrid Peptide Carrier and Biological Evaluation in Jurkat and A549 Cancer Cell Lines” (ACS Med Chem Lett, 2017).
